Molecules are shown by their SMILES.

Experiment [1] has as its system H3K9me2 in MDA-MB-231 cells. In words: MDA-MB-231 H3K9me2 in-cell western assay. The format is cell-based. Particulars: Homo sapiens, read-out: EHMT2 ICW (IC50 μM). The essentials: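 MDA-MB-231 cells (3,000/well) exposed to compound for two consecutive 48 h periods at 37 °C, then fixed and stained for H3K9me2, with DRAQ5 as DNA stain and infrared read at 700/800 nm. Percent inhibition was set between DMSO and UNC0638 control wells. IC50 came from triplicate dose–response fits with a four-parameter model, top 100%, bottom 0%.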

Experiment [2] addresses T1, EHMT1 (Homo sapiens, UniProt Q9H9B1).
T1 sequence (Q9H9B1 1-1298): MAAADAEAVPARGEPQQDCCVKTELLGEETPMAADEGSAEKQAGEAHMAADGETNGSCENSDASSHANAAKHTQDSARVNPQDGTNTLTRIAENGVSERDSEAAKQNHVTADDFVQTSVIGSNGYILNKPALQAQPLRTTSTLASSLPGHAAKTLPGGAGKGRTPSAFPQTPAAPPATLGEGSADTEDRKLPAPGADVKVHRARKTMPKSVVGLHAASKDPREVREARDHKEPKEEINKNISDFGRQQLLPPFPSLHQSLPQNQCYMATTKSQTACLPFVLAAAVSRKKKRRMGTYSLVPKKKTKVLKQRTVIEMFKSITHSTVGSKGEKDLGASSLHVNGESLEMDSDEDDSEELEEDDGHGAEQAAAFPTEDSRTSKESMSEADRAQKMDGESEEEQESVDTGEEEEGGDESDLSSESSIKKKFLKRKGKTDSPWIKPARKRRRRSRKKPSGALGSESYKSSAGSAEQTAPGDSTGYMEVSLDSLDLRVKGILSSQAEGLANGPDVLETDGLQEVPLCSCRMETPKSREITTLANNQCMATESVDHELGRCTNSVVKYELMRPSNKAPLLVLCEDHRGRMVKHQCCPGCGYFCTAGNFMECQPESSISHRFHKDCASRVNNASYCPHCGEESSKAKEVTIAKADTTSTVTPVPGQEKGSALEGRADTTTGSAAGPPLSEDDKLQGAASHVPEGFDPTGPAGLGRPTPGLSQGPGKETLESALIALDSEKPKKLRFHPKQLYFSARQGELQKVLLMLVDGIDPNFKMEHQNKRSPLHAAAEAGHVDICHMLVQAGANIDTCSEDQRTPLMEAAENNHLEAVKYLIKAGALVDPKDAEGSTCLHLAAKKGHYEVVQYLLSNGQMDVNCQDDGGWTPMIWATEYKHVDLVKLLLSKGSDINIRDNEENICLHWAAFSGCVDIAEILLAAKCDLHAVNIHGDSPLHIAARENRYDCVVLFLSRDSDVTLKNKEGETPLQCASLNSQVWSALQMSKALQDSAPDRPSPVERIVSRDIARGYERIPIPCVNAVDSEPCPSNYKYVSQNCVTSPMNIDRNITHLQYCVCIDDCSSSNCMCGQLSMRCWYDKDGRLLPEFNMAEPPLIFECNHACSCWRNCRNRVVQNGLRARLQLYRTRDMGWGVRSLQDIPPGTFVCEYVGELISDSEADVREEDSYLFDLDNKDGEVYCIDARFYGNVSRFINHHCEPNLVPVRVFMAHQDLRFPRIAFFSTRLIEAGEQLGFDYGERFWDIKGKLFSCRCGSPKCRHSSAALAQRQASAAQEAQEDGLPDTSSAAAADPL
In words: EHMT1 PEP (EHMT1 peptide enzyme assay). The format is biochemical. As to conditions: peptide substrate enzyme assay.

One may read the IC50 as the concentration that inhibits the measured activity by half. On to `CNCc1c(C)nn(-c2cc(Nc3nc(C)cc(NC)n3)ccc2OC)c1C` [Compound 106], for which the IC50 in experiment [1] and in experiment [2] was more than 10 µM each time.
With `CNc1cc(C)nc(Nc2ccc(OC)c(-n3cc(CN(C)C)cn3)c2)n1` [Compound 109, N2-(3-(4-((dimethylamino)methyl)-1H-pyrazol-1-yl)-4-methoxyphenyl)-N4,6-dimethylpyrimidine-2,4-diamine], the IC50 in experiment [1] and in experiment [2] was less than 0.1 µM throughout.
Regarding `CNc1cc(C)nc(Nc2ccc(OC)c(-n3ncc4c3CCNC4)c2)n1` [Compound 113, N2-(4-methoxy-3-(4,5,6,7-tetrahydro-1H-pyrazolo[4,3-c]pyridin-1-yl)phenyl)-N4,6-dimethylpyrimidine-2,4-diamine], the IC50 was 0.1 to 1 µM in experiment [1] and less than 0.1 µM in experiment [2].
Consider `CNc1cc(C2CCOCC2)c2cc(OC)c(-n3cc(CN(C)C)nn3)cc2n1` [Compound 116], for which the IC50 in experiment [1] and in experiment [2] was 1 to 10 µM each time.
With `CNC(=O)c1cn(-c2cc(Nc3nc(C)cc(NC)n3)ccc2OC)nn1` [Compound 117], the IC50 in experiment [1] and in experiment [2] was more than 10 µM each time.
Consider `CNc1cc(C)nc(Nc2ccc(OC)c(-n3ncc4ncccc43)c2)n1` [Compound 119], for which the IC50 was more than 10 µM in experiment [1] and 1 to 10 µM in experiment [2].
For `CNc1cc(C)nc(Nc2ccc(OC)c(-n3cc(CN4CCC4)nn3)c2)n1` [Compound 121], in that order: 0.1 to 1 µM and 0.1 to 1 µM.
Take `CNCc1cn(-c2cc3nc(NC)cc(C)c3cc2OC)nn1` [Compound 122]: the figures for the IC50 in experiment [1] and in experiment [2] were 1 to 10 µM and 0.1 to 1 µM, respectively.
Take `CNc1cc(C)c2cc(OC)c(-n3cc(C4CCCN4)nn3)cc2n1` (stereo not shown) [Compound 125]: the IC50 is 0.1 to 1 µM in experiment [1] and less than 0.1 µM in experiment [2].
For `CNC(=O)c1nn(-c2cc(Nc3nc(C)cc(NC)n3)ccc2OC)cc1C` [Compound 134], in that order: more than 10 µM and more than 10 µM.
In the case of `CNc1cc(C)nc(Nc2ccc(OC)c(-n3cc(C4CCCN4C)nn3)c2)n1` (stereo not shown) [Compound 136], the IC50 in experiment [1] and in experiment [2] was 0.1 to 1 µM throughout.
Regarding `CNc1cc(C)nc(Nc2ccc(OC)c(-n3cc(C4CCCN4)nn3)c2)n1` (stereo not shown) [Compound 137, N2-(4-methoxy-3-(4-(pyrrolidin-2-yl)-1H-1,2,3-triazol-1-yl)phenyl)-N4,6-dimethylpyrimidine-2,4-diamine], the IC50 is 0.1 to 1 µM in experiment [1] and less than 0.1 µM in experiment [2].
In the case of `CNc1cc(C)nc(Nc2ccc(OC)c(-n3nnc(C)c3CN(C)C)c2)n1` [Compound 138], the concentration for half-maximal inhibition (IC50) in experiment [1] and in experiment [2] was more than 10 µM each time.
For `CNc1cc(C)nc(Nc2ccc(OC)c(-n3nnc(CN(C)C)c3C)c2)n1` [Compound 139], the IC50 in experiment [1] and in experiment [2] was more than 10 µM in each case.
`CCN(CC)Cc1cn(-c2cc(Nc3nc(C)cc(NC)n3)ccc2OC)nn1` [Compound 143]: the IC50 was 1 to 10 µM in experiment [1] and 0.1 to 1 µM in experiment [2].
Take `CNc1cc(C)nc(Nc2ccc(OC)c(-n3cc4cc(C)ccc4n3)c2)n1` [Compound 144]: the IC50 is more than 10 µM in experiment [1] and 1 to 10 µM in experiment [2].
For `CNc1cc(C)nc(Nc2ccc(OC)c(-n3cc4cc(C5CC5)ccc4n3)c2)n1` [Compound 145], in that order: more than 10 µM and more than 10 µM.
